Measured values: PubChem BioAssay AID248 (DTP/NCI, 2004)
Several values for one entry are separate records, joined by “and”; a condition that tells them apart may be missing. Identical values can stand only once. Toxic doses and inconclusive results are not listed.

System: L1210 leukemia ip in BDF1 mice, survival T/C
Experiment: NCI In Vivo Anticancer Drug Screen. Data for tumor model L1210 Leukemia (intraperitoneal) in B6D2F1 (BDF1) mice
Conditions: vehicle: saline, higher = longer survival
How it was run: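 Survival endpoint. Drug-treated group vs vehicle group, expressed as T divided by C. Tumor passaged by transplantation.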

## COc1cc2c(c(OC)c1OC)-c1ccc(OC)c(=O)cc1[C@@H](NC(C)=O)CC2
endpoint: mean survival time, dose: 0.01 mg/kg/injection, schedule: Q01DX010 (ip)
  T/C: 96 % of control and 97 % of control
endpoint: mean survival time, dose: 0.02 mg/kg/injection, schedule: Q01DX010 (ip)
  T/C: 93 % of control and 103 % of control
endpoint: mean survival time, dose: 0.04 mg/kg/injection, schedule: Q01DX010 (ip)
  T/C: 102 % of control and 103 % of control
endpoint: mean survival time, dose: 0.06 mg/kg/injection, schedule: Q01DX015 (ip)
  T/C: 98 % of control
endpoint: mean survival time, dose: 0.08 mg/kg/injection, schedule: Q01DX010 (ip)
  T/C: 102 % of control and 115 % of control
endpoint: mean survival time, dose: 0.09 mg/kg/injection, schedule: Q01DX015 (ip)
  T/C: 100 % of control
endpoint: mean survival time, dose: 0.09 mg/kg/injection, schedule: Q02DX008 (ip)
  T/C: 97 % of control
endpoint: mean survival time, dose: 0.1 mg/kg/injection, schedule: Q## X032 (ip)
  T/C: 98 % of control
endpoint: mean survival time, dose: 0.13 mg/kg/injection, schedule: Q01DX009 (ip)
  T/C: 110 % of control
endpoint: mean survival time, dose: 0.13 mg/kg/injection, schedule: Q01DX015 (ip)
  T/C: 104 % of control
endpoint: mean survival time, dose: 0.13 mg/kg/injection, schedule: Q02DX008 (ip)
  T/C: 97 % of control
endpoint: mean survival time, dose: 0.16 mg/kg/injection, schedule: Q## X032 (ip)
  T/C: 97 % of control
endpoint: mean survival time, dose: 0.2 mg/kg/injection, schedule: Q01DX015 (ip)
  T/C: 113 % of control
endpoint: mean survival time, dose: 0.2 mg/kg/injection, schedule: Q02DX008 (ip)
  T/C: 103 % of control
endpoint: mean survival time, dose: 0.24 mg/kg/injection, schedule: Q## X032 (ip)
  T/C: 100 % of control
endpoint: mean survival time, dose: 0.25 mg/kg/injection, schedule: Q01DX005 (oral)
  T/C: 102 % of control
endpoint: mean survival time, dose: 0.25 mg/kg/injection, schedule: Q01DX009 (ip)
  T/C: 113 % of control
endpoint: mean survival time, dose: 0.25 mg/kg/injection, schedule: Q04DX003 (ip)
  T/C: 121 % of control
endpoint: mean survival time, dose: 0.3 mg/kg/injection, schedule: Q01DX015 (ip)
  T/C: 117 % of control
endpoint: mean survival time, dose: 0.3 mg/kg/injection, schedule: Q02DX008 (ip)
  T/C: 106 % of control
endpoint: mean survival time, dose: 0.36 mg/kg/injection, schedule: Q## X032 (ip)
  T/C: 102 % of control
endpoint: mean survival time, dose: 0.45 mg/kg/injection, schedule: Q02DX008 (ip)
  T/C: 120 % of control
endpoint: mean survival time, dose: 0.5 mg/kg/injection, schedule: Q01DX001 (iv)
  T/C: 93 % of control
endpoint: mean survival time, dose: 0.5 mg/kg/injection, schedule: Q01DX005 (oral)
  T/C: 101 % of control
endpoint: mean survival time, dose: 0.5 mg/kg/injection, schedule: Q01DX009 (ip)
  T/C: 108 % of control
endpoint: mean survival time, dose: 0.5 mg/kg/injection, schedule: Q04DX003 (ip)
  T/C: 116 % of control
endpoint: mean survival time, dose: 0.5 mg/kg/injection, schedule: Q## X032 (ip)
  T/C: 105 % of control
endpoint: mean survival time, dose: 0.54 mg/kg/injection, schedule: Q04DX004 (ip)
  T/C: 112 % of control
endpoint: mean survival time, dose: 0.54 mg/kg/injection, schedule: Q## X032 (ip)
  T/C: 105 % of control
endpoint: mean survival time, dose: 0.6 mg/kg/injection, schedule: Q## X004 (ip)
  T/C: 112 % of control
endpoint: mean survival time, dose: 0.8 mg/kg/injection, schedule: Q04DX004 (ip)
  T/C: 114 % of control
endpoint: mean survival time, dose: 0.8 mg/kg/injection, schedule: Q## X032 (ip)
  T/C: 114 % of control
endpoint: mean survival time, dose: 0.9 mg/kg/injection, schedule: Q## X004 (ip)
  T/C: 114 % of control
endpoint: mean survival time, dose: 1.0 mg/kg/injection, schedule: Q01DX001 (iv)
  T/C: 97 % of control
endpoint: mean survival time, dose: 1.0 mg/kg/injection, schedule: Q01DX005 (oral)
  T/C: 100 % of control
endpoint: mean survival time, dose: 1.0 mg/kg/injection, schedule: Q01DX009 (ip)
  T/C: 122 % of control
endpoint: mean survival time, dose: 1.0 mg/kg/injection, schedule: Q04DX003 (ip)
  T/C: 104 % of control
endpoint: mean survival time, dose: 1.2 mg/kg/injection, schedule: Q04DX004 (ip)
  T/C: 116 % of control
endpoint: mean survival time, dose: 1.25 mg/kg/injection, schedule: Q01DX001 (ip)
  T/C: 101 % of control and 114 % of control and 123 % of control
endpoint: mean survival time, dose: 1.3 mg/kg/injection, schedule: Q## X004 (ip)
  T/C: 121 % of control
endpoint: mean survival time, dose: 1.6 mg/kg/injection, schedule: Q## X032 (ip)
  T/C: 124 % of control
endpoint: mean survival time, dose: 2.0 mg/kg/injection, schedule: Q01DX001 (iv)
  T/C: 107 % of control
endpoint: mean survival time, dose: 2.0 mg/kg/injection, schedule: Q01DX001 (oral)
  T/C: 91 % of control
endpoint: mean survival time, dose: 2.0 mg/kg/injection, schedule: Q01DX005 (oral)
  T/C: 92 % of control
endpoint: mean survival time, dose: 2.0 mg/kg/injection, schedule: Q## X004 (ip)
  T/C: 156 % of control
endpoint: mean survival time, dose: 2.5 mg/kg/injection, schedule: Q01DX001 (ip)
  T/C: 118 % of control and 124 % of control
endpoint: mean survival time, dose: 3.6 mg/kg/injection, schedule: Q## X032 (ip)
  T/C: 102 % of control
endpoint: mean survival time, dose: 4.0 mg/kg/injection, schedule: Q01DX001 (iv)
  T/C: 97 % of control
endpoint: mean survival time, dose: 4.0 mg/kg/injection, schedule: Q01DX001 (oral)
  T/C: 100 % of control
endpoint: mean survival time, dose: 4.0 mg/kg/injection, schedule: Q08DX002 (ip)
  T/C: 108 % of control
endpoint: mean survival time, dose: 5.0 mg/kg/injection, schedule: Q01DX001 (ip)
  T/C: 94 % of control and 118 % of control
endpoint: mean survival time, dose: 8.0 mg/kg/injection, schedule: Q01DX001 (oral)
  T/C: 92 % of control
endpoint: mean survival time, dose: 31.2 micrograms/kg/injection, schedule: Q03HX024 (ip)
  T/C: 97 % of control
endpoint: mean survival time, dose: 62.5 micrograms/kg/injection, schedule: Q01DX005 (iv)
  T/C: 100 % of control
endpoint: mean survival time, dose: 62.5 micrograms/kg/injection, schedule: Q01DX009 (ip)
  T/C: 101 % of control
endpoint: mean survival time, dose: 62.5 micrograms/kg/injection, schedule: Q03HX016 (ip)
  T/C: 102 % of control
endpoint: mean survival time, dose: 62.5 micrograms/kg/injection, schedule: Q03HX024 (ip)
  T/C: 104 % of control
endpoint: mean survival time, dose: 125.0 micrograms/kg/injection, schedule: Q01DX005 (iv)
  T/C: 98 % of control
endpoint: mean survival time, dose: 125.0 micrograms/kg/injection, schedule: Q01DX009 (ip)
  T/C: 115 % of control
endpoint: mean survival time, dose: 125.0 micrograms/kg/injection, schedule: Q03HX008 (ip)
  T/C: 123 % of control
endpoint: mean survival time, dose: 125.0 micrograms/kg/injection, schedule: Q03HX016 (ip)
  T/C: 107 % of control
endpoint: mean survival time, dose: 125.0 micrograms/kg/injection, schedule: Q03HX024 (ip)
  T/C: 109 % of control
endpoint: mean survival time, dose: 250.0 micrograms/kg/injection, schedule: Q01DX005 (iv)
  T/C: 98 % of control
endpoint: mean survival time, dose: 250.0 micrograms/kg/injection, schedule: Q03HX016 (ip)
  T/C: 121 % of control
endpoint: mean survival time, dose: 250.0 micrograms/kg/injection, schedule: Q03HX024 (ip)
  T/C: 96 % of control
endpoint: mean survival time, dose: 500.0 micrograms/kg/injection, schedule: Q01DX005 (iv)
  T/C: 100 % of control
endpoint: mean survival time, dose: 1000.0 micrograms/kg/injection, schedule: Q01DX005 (iv)
  T/C: 107 % of control
endpoint: mean survival time, dose: 1000.0 micrograms/kg/injection, schedule: Q01DX009 (ip)
  T/C: 87 % of control
endpoint: median survival time, dose: 0.02 mg/kg/injection, schedule: Q01DX009 (ip)
  T/C: 93 % of control and 100 % of control
endpoint: median survival time, dose: 0.04 mg/kg/injection, schedule: Q01DX009 (ip)
  T/C: 100 % of control
endpoint: median survival time, dose: 0.08 mg/kg/injection, schedule: Q01DX009 (ip)
  T/C: 106 % of control and 111 % of control
endpoint: median survival time, dose: 0.16 mg/kg/injection, schedule: Q01DX009 (ip)
  T/C: 112 % of control
